From the NIST ThermoML archive (doi:10.1021/je050403k) come the findings set out here.

For this series the following is noted: Liquid.

Several values for one entry are separate records, joined by “and”; a condition that tells them apart may be missing. Identical values can stand only once. ± gives the expanded uncertainty stated by the source.

For `C=CCC` [1-butene], for the setting “364.51 K”, the “vapor or sublimation pressure” value is reported as 1510.5 ± 10 kPa.

Take `CC(C)C` [2-methylpropane]: where the note is “364.5 K”, the “vapor or sublimation pressure” value amounted to 1685.6 ± 12 kPa.

On to `C=C(C)C` [2-methylpropene], for which, under “364.51 K”, the “vapor or sublimation pressure” value is on record as 1546.2 ± 11 kPa.

Turning to `C/C=C/C` [(E)-2-butene], the “vapor or sublimation pressure” value (364.5 K) came out at 1269.2 ± 8.9 kPa.

On to `C/C=C\C` [(Z)-2-butene], for which the “vapor or sublimation pressure” value (365.43 K) worked out at 1213 ± 8.5 kPa.

`CC(C)=O` [acetone]: the “vapor or sublimation pressure” value runs as follows: (364.51 K) 297.1 ± 2.1 kPa and 294.3 ± 2.1 kPa and 296.4 ± 2.1 kPa; (364.52 K) 296.8 ± 2.1 kPa; (365.43 K) 302.56 ± 2.1 kPa.

With `CCCC` [butane], the “vapor or sublimation pressure” value (364.51 K) came to 1284.5 ± 8.9 kPa.
